# Where two headings read alike, the source gives them in different places.
# Experiments:
# human HDAC2 = human HDAC2 (Homo sapiens (Human), UniProt Q92769); assay: HDAC2 inhibition assay (modified FLUOR DE LYS, 384-well); assay type: biochemical; conditions: […] nM enzyme, 40 μM substrate BML-KI104, 3 h pre-incubation; read-out: HDAC2 IC50
# human HDAC8 = human HDAC8 (Homo sapiens (Human), UniProt Q9BY41); assay: HDAC8 inhibition assay (modified FLUOR DE LYS, 384-well); assay type: biochemical; conditions: […] nM enzyme, 200 μM substrate BML-KI178, 3 h pre-incubation; read-out: HDAC8 IC50
# human HDAC8, sequence (Q9BY41 whole entry): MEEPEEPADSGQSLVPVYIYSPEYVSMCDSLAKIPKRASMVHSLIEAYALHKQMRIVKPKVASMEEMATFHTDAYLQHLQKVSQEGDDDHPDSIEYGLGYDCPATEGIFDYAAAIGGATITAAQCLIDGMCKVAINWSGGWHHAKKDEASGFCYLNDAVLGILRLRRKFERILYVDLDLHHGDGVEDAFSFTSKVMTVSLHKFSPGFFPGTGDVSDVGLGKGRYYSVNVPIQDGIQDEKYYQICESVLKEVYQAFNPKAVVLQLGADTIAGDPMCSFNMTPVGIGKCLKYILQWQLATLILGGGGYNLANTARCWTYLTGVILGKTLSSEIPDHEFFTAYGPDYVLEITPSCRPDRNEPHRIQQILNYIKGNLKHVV
# KARN cells (Jurkat 2C4) = assay: cells; conditions: Homo sapiens
# Procedure: KARN Assay Cell Maintenance
# KARN cells (Jurkat 2C4) were licensed from the laboratory of Dr. John Karn, Case Western Reserve University, School of Medicine. […] An atmosphere of 5% CO2 and 90% humidity was used for all culture work.
# These flasks were returned to the incubator.
# The cells were gently resuspended in assay media (30 ml) and pelleted again. […] The cells were counted using the ViCell (Beckman Coulter) and diluted as necessary. […] The plates were covered and returned to the incubator prior to compound addition.
# The reference compounds, DMSO and SAHA were then added to the compound plate. […] The final high concentration for SAHA and the test compounds in the assays was 40 μM. The final DMSO concentration in all wells was 0.4%. The minimal induction reference compound used was DMSO and the maximal induction reference compound used was SAHA (2 μM final concentration in the assay).
# Day 3: The luciferase detection reagent was prepared by transferring the contents of one bottle of Steady-Glo buffer to one bottle of Steady-Glo aubstrate (Steady-Glo Luciferase Assay System, Promega, catalog number E2520), followed by gently mixing until the substrate was thoroughly dissolved and the solution was equilibrated to room temperature. […] The Steady-Glo Reagent was added to the plates (30 μl/well), which were then covered with a black lid and incubated for 10 minutes at room temperature. The plates were then read for luminescence on an Envision (Perkin Elmer) using the ultrasensitive mode (US LUM), 0.1 counts per second and 384-well aperture. Luminescence counts in the DMSO reference wells were considered as 0% induction, while those in the 2 μM SAHA reference wells were considered as 100% induction. Dose response curves were plotted as test compound concentration (X-axis) vs. percent activation (Y-axis) using a 4-parameter fit based on the Levenberg-Marquardt algorithm.
# human HDAC1 = human HDAC1 (Homo sapiens (Human), UniProt Q13547); assay: biochemical
# human HDAC1, sequence (Q13547 whole entry): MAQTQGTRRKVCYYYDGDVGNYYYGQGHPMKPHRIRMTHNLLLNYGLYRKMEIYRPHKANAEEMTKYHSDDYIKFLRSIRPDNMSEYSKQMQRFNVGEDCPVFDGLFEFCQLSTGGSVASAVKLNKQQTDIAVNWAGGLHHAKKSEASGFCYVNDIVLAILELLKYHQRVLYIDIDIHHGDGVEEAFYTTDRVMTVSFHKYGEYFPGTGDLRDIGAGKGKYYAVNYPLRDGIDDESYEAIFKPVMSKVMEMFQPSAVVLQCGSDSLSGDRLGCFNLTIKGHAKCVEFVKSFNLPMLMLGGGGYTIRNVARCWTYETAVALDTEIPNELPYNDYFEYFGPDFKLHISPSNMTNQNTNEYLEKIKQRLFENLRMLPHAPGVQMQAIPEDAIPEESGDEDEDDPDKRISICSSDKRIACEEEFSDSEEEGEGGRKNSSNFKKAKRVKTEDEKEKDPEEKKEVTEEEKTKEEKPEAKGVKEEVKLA
# [1] = target: human HDAC3/SMRT heterodimer (Homo sapiens (Human), UniProt O15379); assay: biochemical
# human HDAC3/SMRT heterodimer, sequence (O15379 whole entry): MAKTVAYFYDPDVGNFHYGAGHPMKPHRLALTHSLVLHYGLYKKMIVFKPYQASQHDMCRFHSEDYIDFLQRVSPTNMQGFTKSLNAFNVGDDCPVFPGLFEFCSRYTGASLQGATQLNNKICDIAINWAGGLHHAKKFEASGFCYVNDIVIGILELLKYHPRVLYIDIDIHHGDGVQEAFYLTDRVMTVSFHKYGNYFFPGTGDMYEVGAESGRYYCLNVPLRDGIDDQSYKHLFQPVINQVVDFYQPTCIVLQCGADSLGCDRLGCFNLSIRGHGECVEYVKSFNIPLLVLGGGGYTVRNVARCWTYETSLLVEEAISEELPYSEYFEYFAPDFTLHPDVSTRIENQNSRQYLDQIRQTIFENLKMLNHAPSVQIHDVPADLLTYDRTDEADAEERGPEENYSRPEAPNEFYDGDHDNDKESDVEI
# human HDAC3/SMRT heterodimer, sequence (Q9Y618 1-899 partner): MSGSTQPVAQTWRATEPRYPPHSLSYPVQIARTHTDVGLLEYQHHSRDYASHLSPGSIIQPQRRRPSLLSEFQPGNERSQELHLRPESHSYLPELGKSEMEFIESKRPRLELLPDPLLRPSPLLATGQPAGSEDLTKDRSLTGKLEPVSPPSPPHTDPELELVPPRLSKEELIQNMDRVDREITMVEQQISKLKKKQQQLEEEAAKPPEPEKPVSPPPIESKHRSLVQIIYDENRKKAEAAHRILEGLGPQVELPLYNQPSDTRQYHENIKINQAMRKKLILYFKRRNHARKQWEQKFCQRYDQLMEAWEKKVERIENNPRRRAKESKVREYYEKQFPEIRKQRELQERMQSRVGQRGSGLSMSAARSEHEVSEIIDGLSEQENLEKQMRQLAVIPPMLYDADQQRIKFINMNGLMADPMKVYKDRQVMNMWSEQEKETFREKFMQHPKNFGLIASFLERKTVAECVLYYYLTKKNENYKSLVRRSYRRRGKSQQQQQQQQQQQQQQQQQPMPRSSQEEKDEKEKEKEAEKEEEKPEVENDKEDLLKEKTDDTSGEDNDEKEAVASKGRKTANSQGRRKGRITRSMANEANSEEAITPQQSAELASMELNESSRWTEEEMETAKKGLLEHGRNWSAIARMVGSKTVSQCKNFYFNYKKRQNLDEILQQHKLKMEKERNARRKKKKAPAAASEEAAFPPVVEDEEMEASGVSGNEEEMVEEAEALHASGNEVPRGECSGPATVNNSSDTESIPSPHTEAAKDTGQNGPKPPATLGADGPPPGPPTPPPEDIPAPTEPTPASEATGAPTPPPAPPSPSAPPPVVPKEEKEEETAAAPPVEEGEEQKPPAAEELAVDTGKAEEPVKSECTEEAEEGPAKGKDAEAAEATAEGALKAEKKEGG
# HDAC6 = HDAC6 (Homo sapiens (Human), UniProt Q9UBN7); assay: biochemical
# HDAC6, sequence (Q9UBN7 whole entry): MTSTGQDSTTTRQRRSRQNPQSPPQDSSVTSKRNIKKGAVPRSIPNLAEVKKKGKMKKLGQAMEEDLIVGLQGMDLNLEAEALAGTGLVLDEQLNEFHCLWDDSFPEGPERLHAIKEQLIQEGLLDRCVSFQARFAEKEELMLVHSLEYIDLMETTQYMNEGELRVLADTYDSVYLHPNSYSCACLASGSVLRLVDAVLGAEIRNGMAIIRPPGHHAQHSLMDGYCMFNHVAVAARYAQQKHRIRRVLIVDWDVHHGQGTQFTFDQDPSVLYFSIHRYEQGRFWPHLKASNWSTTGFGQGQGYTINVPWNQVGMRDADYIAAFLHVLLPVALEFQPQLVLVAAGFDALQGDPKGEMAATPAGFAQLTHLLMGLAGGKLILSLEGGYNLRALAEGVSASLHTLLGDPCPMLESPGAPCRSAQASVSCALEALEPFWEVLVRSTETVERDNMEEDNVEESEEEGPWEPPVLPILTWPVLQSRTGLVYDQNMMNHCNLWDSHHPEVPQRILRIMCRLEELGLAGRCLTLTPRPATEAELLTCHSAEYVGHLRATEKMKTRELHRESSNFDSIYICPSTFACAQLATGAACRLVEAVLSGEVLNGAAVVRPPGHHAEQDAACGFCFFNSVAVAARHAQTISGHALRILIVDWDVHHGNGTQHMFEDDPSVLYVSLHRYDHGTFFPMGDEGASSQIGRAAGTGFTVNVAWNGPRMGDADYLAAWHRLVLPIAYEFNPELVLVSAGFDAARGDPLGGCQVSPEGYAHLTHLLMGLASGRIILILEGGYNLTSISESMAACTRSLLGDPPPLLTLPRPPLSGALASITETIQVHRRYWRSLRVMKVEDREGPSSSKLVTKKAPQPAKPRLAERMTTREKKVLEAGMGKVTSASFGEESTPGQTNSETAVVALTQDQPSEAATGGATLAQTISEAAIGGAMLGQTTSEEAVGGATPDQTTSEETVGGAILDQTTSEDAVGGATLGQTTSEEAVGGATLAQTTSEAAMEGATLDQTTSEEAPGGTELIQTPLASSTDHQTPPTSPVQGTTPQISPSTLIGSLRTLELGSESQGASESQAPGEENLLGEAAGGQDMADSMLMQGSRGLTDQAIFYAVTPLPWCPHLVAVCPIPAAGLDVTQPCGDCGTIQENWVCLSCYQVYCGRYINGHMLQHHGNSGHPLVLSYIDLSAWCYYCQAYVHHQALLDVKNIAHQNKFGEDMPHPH
# [2] = read-out: Karn EC50 nM 0.1% NHS, 0.1% normal human serum, luciferase induction, 2 μM SAHA = 100%
# [3] = read-out: Karn EC50 nM 5% NHS, 5% normal human serum, luciferase induction, 2 μM SAHA = 100%
# [4] = read-out: Karn EC50 nM 0.1% NHS
# human HDAC2, sequence (Q92769 whole entry): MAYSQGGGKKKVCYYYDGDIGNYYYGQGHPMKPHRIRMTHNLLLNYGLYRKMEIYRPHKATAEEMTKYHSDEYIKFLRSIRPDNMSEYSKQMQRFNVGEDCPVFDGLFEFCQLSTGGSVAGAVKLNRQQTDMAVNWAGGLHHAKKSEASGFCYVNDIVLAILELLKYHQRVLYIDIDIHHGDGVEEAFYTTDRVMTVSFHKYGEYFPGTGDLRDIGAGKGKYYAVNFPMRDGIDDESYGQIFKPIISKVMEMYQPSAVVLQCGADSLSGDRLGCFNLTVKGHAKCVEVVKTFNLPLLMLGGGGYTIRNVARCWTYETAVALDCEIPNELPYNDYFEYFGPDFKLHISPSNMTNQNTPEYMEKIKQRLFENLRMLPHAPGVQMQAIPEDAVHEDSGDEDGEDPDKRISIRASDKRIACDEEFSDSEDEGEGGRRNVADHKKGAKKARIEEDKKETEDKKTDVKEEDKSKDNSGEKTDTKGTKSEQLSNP
Structure (SMILES),IC50 (human HDAC2) [nM],IC50 (human HDAC8) [nM],EC50 (KARN cells (Jurkat 2C4); [2]) [nM],EC50 (KARN cells (Jurkat 2C4); [3]) [nM],IC50 (human HDAC1) [nM],IC50 [1] [nM],IC50 (HDAC6) [nM],EC50 (KARN cells (Jurkat 2C4); [4]) [nM],EC50 (KARN cells (Jurkat 2C4); read-out: Karn EC50 nM 5% NHS) [nM]
"COc1ncccc1-c1cnc([C@@H](N)CCCCCC(=O)c2ncco2)o1 [Example 28, (S)-7-amino-7-(5-(2-methoxypyridin-3-yl)oxazol-2-yl)-1-(oxazol-2-yl)heptan-1-one]",32,> 900,1900,2000,9,9.4,655,,
"Cc1ccc2cc(-c3cn(C)c([C@@H](N)CCCCCC(=O)c4ncco4)n3)ccc2n1 [Example 29, (S)-7-amino-7-(1-methyl-4-(2-methylquinolin-6-yl)-1H-imidazol-2-yl)-1-(oxazol-2-yl)heptan-1-one]",63,20000,1800,1800,15,18,5160,,
"COc1cc2nc(C)ccc2cc1-c1c[nH]c([C@@H](N)CCCCCC(=O)c2ccon2)n1 [Example 31, (S)-7-amino-1-(isoxazol-3-yl)-7-(4-(7-methoxy-2-methylquinolin-6-yl)-1H-imidazol-2-yl)heptan-1-one]",4.3,100,18,26,1.4,1.8,22000,,
"COc1ncccc1-c1c[nH]c([C@@H](N)CCCCCC(=O)c2ccon2)n1 [Example 33, (S)-7-amino-1-(isoxazol-3-yl)-7-(4-(2-methoxypyridin-3-yl)-1H-imidazol-2-yl)heptan-1-one]",4.3,110,61,84,0.73,0.84,≥ 45000,,
"O=C1CC[C@](CCCCCC(=O)c2ncco2)(c2ncc(-c3ccc(F)cc3)[nH]2)N1 [Example 65, (R)-5-(5-(4-fluorophenyl)-1H-imidazol-2-yl)-5-(6-(oxazol-2-yl)-6-oxohexyl)pyrrolidin-2-one]",11,3100,470,630,2.2,2.2,≥ 45000,,
"O=C1NC(CCCCCC(=O)c2ncco2)(c2nc(-c3ccc(F)cc3)c[nH]2)CO1 (stereo not drawn) [Example 66, 4-(4-(4-fluorophenyl)-1H-imidazol-2-yl)-4-(6-(oxazol-2-yl)-6-oxohexyl)oxazolidin-2-one]",15,4400,380,530,4.4,3.1,≥ 45000,,
"O=C1CC[C@@](CCCCCC(=O)c2ccon2)(c2nc(-c3ccc(-c4ncco4)cc3F)c[nH]2)N1 [Example 67, (S)-5-(4-(2-fluoro-4-(oxazol-2-yl)phenyl)-1H-imidazol-2-yl)-5-(6-(isoxazol-3-yl)-6-oxohexyl)pyrrolidin-2-one]",4.3,400,51,95,1.8,1.5,≥ 45000,,
"O=C1CC[C@@](CCCCCC(=O)c2ccon2)(c2nc(-c3ccc(C4CC4)cc3F)c[nH]2)N1 [Example 68, (S)-5-(4-(4-cyclopropyl-2-fluorophenyl)-1H-imidazol-2-yl)-5-(6-(isoxazol-3-yl)-6-oxohexyl)pyrrolidin-2-one]",5,230,34,110,1,0.55,> 900,,
"O=C1CC[C@@](CCCCCC(=O)c2ccon2)(c2nc(-c3ccccc3F)c[nH]2)N1 [Example 69, (S)-5-(4-(2-fluorophenyl)-1H-imidazol-2-yl)-5-(6-(isoxazol-3-yl)-6-oxohexyl)pyrrolidin-2-one]",4.2,210,96,260,0.92,0.79,> 900,,
"COc1cc2nc(C)ccc2cc1-c1cnc([C@@]2(CCCCCC(=O)c3ccon3)CCC(=O)N2)[nH]1 [Example 70, (R)-5-(6-(isoxazol-3-yl)-6-oxohexyl)-5-(5-(7-methoxy-2-methylquinolin-6-yl)-1H-imidazol-2-yl)pyrrolidin-2-one]",3.5,260,31,110,0.78,1.1,> 900,,
"COc1ncccc1-c1c[nH]c([C@]2(CCCCCC(=O)c3ccon3)CCCC(=O)N2)n1 [Example 71, (S)-6-(6-(isoxazol-3-yl)-6-oxohexyl)-6-(4-(2-methoxypyridin-3-yl)-1H-imidazol-2-yl)piperidin-2-one]",6.1,690,330,490,1.19,1.8,> 900,,
"O=C1CCCC[C@@](CCCCCC(=O)c2ccon2)(c2nc(-c3ccccc3F)c[nH]2)N1 [Example 72, (S)-7-(4-(2-fluorophenyl)-1H-imidazol-2-yl)-7-(6-(isoxazol-3-yl)-6-oxohexyl)azepan-2-one]",89,> 900,650,1900,17,17,> 900,,
"COc1nc2ccccc2cc1-c1cnc(CCCCCCC(=O)c2ncco2)[nH]1 [Example 73, 7-(5-(2-methoxyquinolin-3-yl)-1H-imidazol-2-yl)-1-(oxazol-2-yl)heptan-1-one]",16,3900,840,15,3.3,4.2,2500,,
"CCN[C@@H](CCCCCC(=O)c1ncco1)c1ncc(-c2ccc3nc(C)ccc3c2)[nH]1 [Example 74, (S)-7-(ethylamino)-7-(5-(2-methylquinolin-6-yl)-1H-imidazol-2-yl)-1-(oxazol-2-yl)heptan-1-one]",5,4500,140,200,1.6,1.8,≥ 45000,,
"CN[C@@H](CCCCCC(=O)c1ncco1)c1ncc(-c2cc3ccc(=O)n(C)c3cc2OC)[nH]1 [Example 76, (S)-7-methoxy-1-methyl-6-(2-(1-(methylamino)-7-(oxazol-2-yl)-7-oxoheptyl)-1H-imidazol-5-yl)quinolin-2(1H)-one]",6.7,> 900,200,220,2.2,2.7,> 900,,
"Cc1ccc2cc(-c3c[nH]c([C@H](CCCCCC(=O)c4ncco4)NC4CCOCC4)n3)ccc2n1 [Example 79, (S)-7-(5-(2-methylquinolin-6-yl)-1H-imidazol-2-yl)-1-(oxazol-2-yl)-7-((tetrahydro-2H-pyran-4-yl)amino)heptan-1-one]",35,17000,,,6.6,12,≥ 45000,1000,1300
"Cc1ccc2cc(-c3c[nH]c([C@H](CCCCCC(=O)c4ncco4)NCc4ccccc4)n3)ccc2n1 [Example 81, (S)-7-(benzylamino)-7-(5-(2-methylquinolin-6-yl)-1H-imidazol-2-yl)-1-(oxazol-2-yl)heptan-1-one]",16,4900,,,3.4,3.7,21000,430,690
"Cc1ccc2cc(-c3cnc([C@H](CCCCCC(=O)c4ncco4)N4CCOCC4)[nH]3)ccc2n1 [Example 83, (S)-7-(5-(2-methylquinolin-6-yl)-1H-imidazol-2-yl)-7-morpholino-1-(oxazol-2-yl)heptan-1-one]",62,12000,3400,4200,14,31,≥ 45000,,
"COc1cc2nc(C)ccc2cc1-c1cnc([C@H](CCCCCC(=O)c2ncco2)NC2CC(OC)C2)[nH]1 (stereo partly drawn) [Example 84, (S)-7-(5-(7-methoxy-2-methylquinolin-6-yl)-1H-imidazol-2-yl)-7-((3-methoxycyclobutyl)amino)-1-(oxazol-2-yl)heptan-1-one]",22,3100,490,540,4,7.9,13000,,
"COc1cc2nc(C)ccc2cc1-c1cnc([C@H](CCCCCC(=O)c2ncco2)Nc2ncccn2)[nH]1 [Example 85, (S)-7-(5-(7-methoxy-2-methylquinolin-6-yl)-1H-imidazol-2-yl)-1-(oxazol-2-yl)-7-(pyrimidin-2-ylamino)heptan-1-one]",11,210,67,210,2.3,1.5,250,,
"COC(=O)N[C@@H](CCCCCC(=O)c1ncco1)c1ncc(-c2cc3ccc(C)nc3cc2OC)[nH]1 [Example 86, (S)-methyl (1-(5-(7-methoxy-2-methylquinolin-6-yl)-1H-imidazol-2-yl)-7-(oxazol-2-yl)-7-oxoheptyl)carbamate]",9.9,160,80,160,2,1.5,40,,
